# Reference: paper PMC7708037, “Targeting OGG1 arrests cancer cell proliferation by inducing replication stress” (Nucleic Acids Research, 2020)
# What was measured:
# A3 OGG1-shRNA cells = assay: Off-target evaluation in OGG1 knockdown A3 cells; assay type: cell-based, human
# Experimental: Figure 4. Anticancer properties overlap between OGG1 loss and OGG1 inhibitors. (A) Viability of T-cell acute […] leukemia cell lines treated for 5 days with the indicated doses TH5487. Data are average ±SD of independent experiments (A3, n = 5; Jurkat, n = 3; MOLT-4, n = 4; CCRF-CEM, n = 3). (B) Relative cell numbers and (C) viability (%) for A3 cells treated for 5 days with 10 μM TH5487. Data are average ±SD of six replicates from three independent experiments. (D) Induction of apoptosis in A3 cells treated for 72 h TH5487 and stained for Annexin V. Data are average ±SD of three independent experiments. (E) A3 cells transfected with shRNA targeting OGG1 were treated with doxycycline for 6 days and stained for Annexin V. Data are average ±SD of two independent experiments. (F) Scheme for recovery experiment in which A3 OGG1-shRNA cells or A3 cells were silenced or inhibited for 6 days with doxycycline (200 nM) or TH5487 (10 μM). […] Statistical significance was determined using unpaired, two-sided t-tests (*P < 0.05, **P < 0.01, ***P < 0.001, ****P < 0.0001, ns, non-significant). […]
# Statistical significance was determined using unpaired, two -sided T-tests (ns, non-significant, *, P<0.05, **, P<0.01, ***, P<0.001 and ****, P<0.0001) . […] D. Comparative bar graph with quantification from two independent Western blots. […]
# [1] = tested on: genomic 8-oxodG in A3 cells; assay: 8-oxodG detection in genomic DNA by LC-MS/MS; assay type: cell-based, human; settings: 10 μM, up to five days
# Experimental: 8-oxodG detection in genomic DNA through LC–MS/MS ([39]) and single-cell electrophoresis ([40]) were performed as described.
# Figure 5. Effect of TH5487 on DNA lesions, DNA damage markers and DNA replication. (A) 8-oxodG accumulation in A3 cells. A3 cells were treated with 20 mM KBrO3 for 1 h or with 10 μM TH5487 for the indicated times, and the amount of genomic 8-oxodG was quantified with LC-MS/MS. Data are average ±SD of five replicates from two independent experiments. (B) Comet assay. A3 cells were treated with 10 μM TH5487 for 72 h and strand-breaks and OGG1 substrate lesions were analyzed with the OGG1-modified Comet assay. Representative images of cells are shown. (C) Violin blot of Comet tail moment. Cells were treated as in B, and the tail moment of the cells were analyzed using blinded automatic analysis (n = 200 per condition from two independent experiments). The full line indicates median, and the dotted lines quartiles. (D) Violin blot of phosphorylated γH2AX intensity. A3 cells were treated with 0.1% DMSO or 10 μM TH5487 for the indicated times and stained for phosphorylated γH2AX. […] At least 33 000 nuclei per group were quantified from three independent experiments. […] At least 300 forks were scored per condition. Statistical significance was determined using unpaired, two-sided t-tests (**P < 0.01, ***P < 0.001 and ****P < 0.0001; ns, non-significant).
smiles,measurement,setting,value
O=C(Nc1ccc(I)cc1)N1CCC(n2c(=O)[nH]c3c(Br)cccc32)CC1 [TH5487],Additional toxic effect in combination with doxycycline,"A3 OGG1-shRNA cells; A3 sh2, 6 days",additional toxic effect
same,Additional toxic effect in OGG1 knockdown cells,"A3 OGG1-shRNA cells; doxycycline 5 days, then additional 48 h with 10 μM",no significant additional toxic effect
same,Genomic 8-oxodG levels,[1],did not rise above assay background levels
